# Earlier results in PMC13109691 (Environmental and Molecular Mutagenesis, 2026).
# Settings: source not stated
compound,measurement,value
COc1ccc(C(=O)c2ccccc2)c(O)c1 [Oxybenzone],Lipophilicity (logP),3.79
